{
  "source": "patent US8569242B2",
  "about": "“Method of treating degenerative disorders of the nervous system” (The Regents of the University of California, priority 2005, dated 2013)",
  "key": {"primary microglia": {"test_system": "primary microglia", "experiment": "Morphometry of microglia activation (Isolectin B4 staining, cell size)", "type": "cell-based, mouse", "conditions": "for effect on LPS-mediated microglia activation: LPS 1 μg/mL", "procedure": "Culture of primary microglia cells. Microglia were isolated from cultures of mixed cortical cells as described (59). In brief, cortices from P1 mice were isolated and digested with trypsin (0.4%) for 20 minutes at 37° C. Cells from 4 pups were plated onto PDL-coated 75 cm2 tissue-culture flasks. The culture medium (DMEM, 10% heat-inactivated FBS, and 1% Pen/Strep) was changed on day 2. After 2-3 weeks in culture, the microglia were removed by the addition of 12 mM lidocaine (Sigma-Aldrich, St. Louis, Mo.) and orbital shaking (180 rpm) for 20 minutes at 37° C. The cells were centrifuged (350×G) and the pellet was resuspended in complete medium and plated onto PDL-coated tissue culture dishes. Microglia cell cultures were >95% pure as determined with three different markers, IsoB4, IBA-1 and CD11b. To immobilize fibrinogen, tissue culture dishes were incubated overnight with 50 μg/mL fibrinogen (Calbiochem, San Diego, Calif.) in 20 mM Tris (pH 7.5) and 0.1 M NaCl at 37° C. for all fibrinogen treatments. To serve as positive controls, LPS (Sigma-Aldrich, St. Louis, Mo.) was added to the media at 1 μg/mL.\nMorphometry. Primary microglia were used for all morphologic analysis. Cells were plated on coated fibrinogen or in the presence of LPS for 72 hours. Microglia were fixed with methanol and immunostained with Isolectin B4 (1:300, Sigma-Aldrich, St. Louis, Mo.). Activated microglia were quantificated as those cells larger than 2,000 μm^2. Blocking experiments involved the daily administration of rat anti-CD11b (10 μg/mL, eBioscience, San Diego, Calif.), γ^377-395 peptide (200 μM) or rat IgG (10 μg/mL, Jackson ImmunoResearch Laboratories, West Grove, Pa.). Results were obtained from six separate experiments performed in duplicates. 250 cells per condition were counted for each individual experiment. Statistical calculations were made by using Student's t test."}, "fibrin": {"biological_target": "T1, fibrin (Mus musculus, UniProt E9PV24+Q8K0E8+Q8VCM7)", "T1 construct": "from tissue; host or cells: citrated mouse plasma, diluted tenfold", "T1 sequence (Q8VCM7 26-436)": "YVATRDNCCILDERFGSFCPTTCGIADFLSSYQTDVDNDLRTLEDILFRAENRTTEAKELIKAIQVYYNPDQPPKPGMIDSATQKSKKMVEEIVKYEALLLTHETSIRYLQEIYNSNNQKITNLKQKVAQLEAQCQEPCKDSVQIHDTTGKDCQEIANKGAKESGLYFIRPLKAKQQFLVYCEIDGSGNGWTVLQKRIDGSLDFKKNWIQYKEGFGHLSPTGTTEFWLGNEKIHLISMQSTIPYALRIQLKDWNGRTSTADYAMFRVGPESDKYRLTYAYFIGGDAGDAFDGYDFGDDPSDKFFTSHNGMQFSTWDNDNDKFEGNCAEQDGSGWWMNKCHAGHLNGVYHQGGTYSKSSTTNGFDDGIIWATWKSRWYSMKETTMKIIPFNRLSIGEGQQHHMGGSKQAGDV", "T1 sequence (E9PV24 37-789 limits assumed)": "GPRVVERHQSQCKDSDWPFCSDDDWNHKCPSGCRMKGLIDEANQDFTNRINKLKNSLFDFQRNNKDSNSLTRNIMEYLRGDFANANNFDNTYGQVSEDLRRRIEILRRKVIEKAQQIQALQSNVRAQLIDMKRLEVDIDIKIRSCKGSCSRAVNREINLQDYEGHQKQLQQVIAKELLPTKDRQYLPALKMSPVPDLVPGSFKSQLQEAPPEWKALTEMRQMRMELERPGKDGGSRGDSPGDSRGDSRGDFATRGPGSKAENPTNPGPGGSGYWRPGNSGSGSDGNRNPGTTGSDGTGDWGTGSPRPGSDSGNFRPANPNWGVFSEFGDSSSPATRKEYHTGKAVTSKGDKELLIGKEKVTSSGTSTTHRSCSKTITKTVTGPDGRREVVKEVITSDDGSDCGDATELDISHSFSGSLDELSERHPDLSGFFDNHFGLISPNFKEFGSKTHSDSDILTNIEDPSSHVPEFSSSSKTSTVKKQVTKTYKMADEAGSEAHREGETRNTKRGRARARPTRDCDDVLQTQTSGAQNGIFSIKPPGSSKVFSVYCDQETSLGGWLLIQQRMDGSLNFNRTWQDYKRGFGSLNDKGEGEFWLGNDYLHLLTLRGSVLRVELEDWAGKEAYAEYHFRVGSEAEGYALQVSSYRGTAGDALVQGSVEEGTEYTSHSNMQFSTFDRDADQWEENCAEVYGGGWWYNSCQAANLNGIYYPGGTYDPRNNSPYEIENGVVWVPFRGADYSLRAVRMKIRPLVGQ", "T1 sequence (Q8K0E8 35-481 limits assumed)": "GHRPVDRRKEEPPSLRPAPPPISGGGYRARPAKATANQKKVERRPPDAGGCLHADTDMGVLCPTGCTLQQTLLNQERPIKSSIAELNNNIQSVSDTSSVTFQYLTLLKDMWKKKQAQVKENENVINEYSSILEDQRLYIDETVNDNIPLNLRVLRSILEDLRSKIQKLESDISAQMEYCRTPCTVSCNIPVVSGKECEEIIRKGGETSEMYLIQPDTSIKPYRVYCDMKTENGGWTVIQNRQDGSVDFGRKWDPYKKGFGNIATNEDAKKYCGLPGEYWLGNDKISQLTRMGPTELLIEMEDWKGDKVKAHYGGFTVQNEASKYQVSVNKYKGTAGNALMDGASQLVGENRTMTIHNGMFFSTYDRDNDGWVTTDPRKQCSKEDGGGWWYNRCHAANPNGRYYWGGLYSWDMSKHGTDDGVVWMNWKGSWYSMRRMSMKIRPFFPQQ", "experiment": "In vitro fibrin polymerization turbidity assay in plasma", "type": "biochemical", "conditions": "citrate plasma, bovine thrombin 0.2 U/ml, OD350", "procedure": "Hematological Analyses. Citrated plasma was prepared from mice administered intranasally 30 μg or 90 μg of γ^377-395 peptide or saline control daily for seven days. Plasma clotting times were measured by combining 10 μl of citrated plasma with 10 μl of 2 U/ml bovine thrombin (Enzyme Research Laboratories, South Bend, Ind., USA) and 40 mM. CaCl2 in a weigh boatfloating in a 37° C. water bath. Time to clot was determined by mixing with a toothpick. Plasma thrombin times were established as described previously (15). Fibrin polymerization was evaluated by standard turbidity assays using plasma. Briefly, citrate plasma (diluted tenfold in 20 mM HEPES, pH 7.4, containing 0.15 M NaCl and 5 mM-amino caproic acid) was combined with bovine thrombin (final concentration 0.2 U/ml; Enzyme Research Laboratories, South Bend, Ind., USA), and Ca^2+ (10 mM), and OD350 measurements were taken every 30 seconds."}, "Mac-1": {"biological_target": "Mac-1 (Homo sapiens, UniProt P11215)", "conditions": "from cited biochemical studies; cited from earlier work"}},
  "note": "Entries after “also recorded” stand apart in the source; their conditions may differ.",
  "data": [
    {"substance": "tyr-ser-met-lys-lys-thr-thr-met-lys-ile-ile-pro-phe-asn-arg-leu-thr-ile-gly (YSMKKTTMKIIPFNRLTIG) (listed as Homo sapiens) [γ^377-395 peptide]", "values": [
      {"measurement": "effect on LPS-mediated microglia activation", "setting": "primary microglia", "result": "did not inhibit"},
      {"measurement": "effect on LPS-mediated microglia activation", "setting": "primary microglia; listed as γ^377-395", "result": "has no effect"},
      {"measurement": "% of activated microglia in fibrinogen treated cells in the presence of blocker", "setting": "primary microglia; M1/70 10 μg/mL or γ^377-395 peptide 200 μM daily, fibrinogen alone 71±4.9%", "result": "38.3±9.8", "unit": "%"},
      {"measurement": "fibrinogen-induced morphologic activation of microglia (in words)", "setting": "primary microglia; added to microglia on immobilized fibrinogen", "result": "attenuated"},
      {"measurement": "effect on activation state of untreated microglia", "setting": "primary microglia; peptide 200 μM", "result": "did not affect"},
      {"measurement": "effect on fibrin polymerization", "setting": "fibrin", "result": "did not alter; also recorded: had no effect"},
      {"measurement": "blocking of fibrin(ogen) binding to Mac-1 (CD11b)", "setting": "Mac-1", "result": "blocks"}
    ]}
  ]
}
